{"source": "patent US20260242359A1", "about": "“IRHOM2 INHIBITORS AND USES THEREOF” (NEW YORK SOCIETY FOR THE RELIEF OF THE RUPTURED AND …, priority 2023, published 2026)", "key": {"[1]": {"tested_on": "TNFα release from LPS-stimulated THP-1 cells (iRhom2/ADAM17-dependent)", "assay": "Primary screen (Example 1b): LPS-stimulated TNFα release from THP-1 cells, HTRF", "format": "cell-based", "conditions": "Homo sapiens, overnight pre-incubation, LPS 100 ng/mL, 3 h, normalized against 10 μM Batimastat", "method": "(§1) Two separate screens to identify novel small molecule inhibitors of iRhom2/ADAM17 activity were developed. […] Therefore, the primary screen for small molecule inhibitors of iRhom2/ADAM17 was a screen for inhibitors that blocked the release of TNFα from LPS-stimulated THP-1 human myeloid cells, a process that depends on iRhom2 and ADAM17. Since the release of TNFα from THP-1 cells can be blocked at many stages of the LPS/TLR4/iRhom2/ADAM17 pathway, a secondary screen was performed for another iRhom2/ADAM17 selective substrate, Kit-ligand 2 (KL-2) (Maretzky T et al. (July 2013), “iRhom2 controls the substrate selectivity of stimulated ADAM17-dependent ectodomain shedding”, PNAS 110(28): 11433-11438) in a different human cell type, human embryonic kidney cells (HEK 293).\nTHP-1 cells were plated in low volume 384 wells (10,000 cells per well in 12.6 μL RPMI medium) together with inhibitors or 10 μM BB94 and incubated over night. The next day, TNFα shedding was initiated by stimulation of THP-1 cells with 100 ng/mL LPS (1.8 μL of an 800 ng/mL LPS stock) for 3 hrs at 37° C. The extent of released TNFα was detected with the corresponding HTRF antibodies labeled with europium cryptate (donor) and d2 (acceptor). The HTRF signal was generated by proximity of europium cryptate and d2. All detection reagents were purchased from Cisbio. TNFα detection was performed according to the manufacturer's protocol (Product Insert for Cisbio TNFα (h) Kit Part #62HTNFAPEG & 62HTNFAPEH; https://www.cisbio.com/media/asset/c/i/cisbio_dd_pi_62htnfapeg-62htnfapeh.pdf, accessed Sep. 28, 2020).\nLow volume 384 well plates were pre-coated with small molecule library compounds for a final concentration of 20 μM in a 15 μL reaction, or 0.75 μL of 200 μM stock of BB94 in 5% DMSO (final concentration 0.25%). 12.6 μL of cell suspension [8E5/mL; 10,000 cells/well; culture RPMI medium] and pre-incubated at 37° C., 5% CO2, over night. The next day, 1.8 μL of an 800 ng/mL LPS stock was added [final concentration 100 ng/mL in 15 μL assay] and the cells were incubated at 37° C., 5% CO2, for 3 h. Subsequently, 3 μL of the HTRF-mix [used at 1:3 dilution of cisbio HTRF human TNF] was added and the plates were incubated for an additional 2 hrs at 25° C. After an incubation at room temperature for 2 h, the HTRF readout was performed. Then data evaluation for normalization against the 10 μM Batimastat control (=100% […]) was applied."}, "[2]": {"tested_on": "PMA-stimulated KL2 release from HEK-293 cells (iRhom2/ADAM17 selective substrate)", "assay": "Secondary screen (Example 3b): PMA-stimulated KL2 release from HEK-293 cells, AP readout", "format": "cell-based", "conditions": "Homo sapiens, HEK293, HEK-293 cells expressing KL2-AP, PMA 100 ng/mL, 2 h, read-out: Secondary Screen IC50 KitL2", "method": "as §1\nExpression plasmids for alkaline phosphatase (AP)-fused human KL2 and TGFα had been previously designed and generated through gene synthesis followed by subcloning into the pcDNA3.1(+)/Hygro expression vector. […] Subsequently, DNA amplifications were performed to obtain sufficient amounts of the expression vectors. The quality of DNA and gene sequences were confirmed through restriction digest and Sanger sequencing. In parallel, cell culture of HEK-293 cells was initiated. Master and working cell banks were prepared, scaled up and transfected with the respective constructs by electroporation. During cell culturing, cell density and viability were monitored to ensure optimal conditions for the transfections. After PMA stimulation, AP-coupled KL2 or TGFα were detected by measurement of AP activity in the supernatant.\nAfter electroporation, cells were further cultured in presence of selection antibiotics, hygromycin B, to generate stably transfected polyclonal cell pools. For both assays, KL2 and TGFα shedding, the respective selected pool turned out to be suitable. Final assay conditions were determined for the selected pools. For all experiments, batimastat (BB94, 10 μM) was used as positive control for full inhibition of KL2 or TGFα shedding.\nThe wells of sterile 384-well flat bottom clear plates for KL2-AP assays were coated with 10 μL of 0.1 mg/mL poly-d-lysine for 3-4 hr at 25° C. or overnight at 4° C., then washed 2× with PBS and patted dry. 60 μL of cells (40,000/well) were added to the sterile 384-well plate and incubated in Optimem (with 2% FCS and 1% Pen-strep) overnight at 37° C. (5% CO2). After incubation overnight, 55 μL medium were removed with a BioTek EL406 and 10 μL of prediluted compounds were added to the cells for a final concentration of 20 μM. After incubation for 15 min, 15 μL of PMA (100 ng/mL final conc.) were added. The cells were incubated for 2 h at 37° C. (5% CO2). Then, the plates were centrifuged for 5 min at 1000 rpm and 3 μL of the supernatant was transferred to a fresh 384 well plate and 9 μL of AP Balance Buffer was added per well. 12 μL of pNPP p-nitrophenyl phosphate (final 1 M pNPP) was added. AP reaction was performed for 1 h at 37° C. The reaction was stopped by addition of 12 μL of NaOH (1 M final conc.), the plates were centrifuged to remove air bubbles and the absorbance of pNP was measured at 405 nm."}}, "note": "pIC50: −log10 of the molar value.", "data": [{"smiles": "O=C(c1c(Cl)cccc1Cl)N1CCC(Cc2ccc(F)cc2)CC1", "note": "[Compound 3]", "values": [{"measurement": "pIC50", "setting": "[1]", "result": "> 7.20"}, {"measurement": "pIC50", "setting": "[2]", "result": "< 4.40"}]}, {"smiles": "Cc1c(C(=O)NCc2cccs2)sc(=O)n1Cc1ccccc1", "note": "[Compound 4]", "values": [{"measurement": "pIC50", "setting": "[1]", "result": 5.12}, {"measurement": "pIC50", "setting": "[2]", "result": "< 4.40"}]}, {"smiles": "Cc1c(C(=O)NCc2cccs2)sc(=O)n1Cc1ccccc1F", "note": "[Compound 5]", "values": [{"measurement": "pIC50", "setting": "[1]", "result": 5.28}, {"measurement": "pIC50", "setting": "[2]", "result": "< 4.40"}]}, {"smiles": "Cc1c(C(=O)NCc2ccco2)sc(=O)n1Cc1ccccc1F", "note": "[Compound 7]", "values": [{"measurement": "pIC50", "setting": "[1]", "result": 5.41}, {"measurement": "pIC50", "setting": "[2]", "result": 4.66}]}]}
